In US20190000128A1, “INFANT FORMULA COMPRISING HUMAN MILK PEPTIDES” (THE A2 MILK COMPANY LIMITED, priority 2015, published 2019):

Tested on: neuronal stem cell (NSC) cultures / foetal stem cells
Test: Neuronal stem cell neurogenesis, differentiation and proliferation by immunocytochemistry
Format: cell-based
Settings: foetal stem cells treated with 1 μM; FIG. 3B
Method: Previously isolated and frozen neuronal stem cell cultures were properly thawed, maintained and cultured. Cell suspensions were grown in a defined medium (DF12) composed of DMEM/F12 (1:1), 2 mM L-glutamine, 1 mM sodium pyruvate, antibiotics/antimycotics (Invitrogen, Grand Island, N.Y.), 0.6% glucose, 25 μg/ml insulin, 20 nM progesterone, 60 μM putrescine, 30 nM sodium selenite (all from Sigma, St. Louis, Mo.), 100 μg/ml human transferrin (Roche, Indianapolis, Ind.), 20 ng/ml human recombinant […] growth factor (EGF; Roche or Invitrogen, Chicago, Ill.) and basic fibroblast growth factor (bFGF; Upstate Biotechnology, Lake Placid, N.Y.). The cells grew as free-floating aggregates (neurospheres) and were passaged by mechanical dissociation every 3-4 d. […]
To identify proliferating cells, 100 μM BrdU, an analog of thymidine, was added 24 h before cell fixation. […] A primary monoclonal antibody against BrdU (1:20; Dakopatts) was added for 1 h at room temperature and detected using AlexaFluor 488-labelled goat anti-mouse IgG (H+L). […] Apoptotic cells were visualised with Hoechst 33342 (LifeTechnologies, Md.) as fragmented pycnotic blue-stained nuclei and counted under the fluorescence microscope (López-Toledano M.A. and Shelanski M.L., 2004 Neurogenic effect of beta-amyloid peptide in the development of neural stem cells. J Neurosci. 24(23):5439-44). […]

CN1CC[C@]23c4c5ccc(O)c4O[C@H]2[C@@H](O)C=C[C@H]3[C@H]1C5 [morphine, Morphine]
neuronal proliferation (image of magnified foetal stem cells): extensive neuronal proliferation
